Assay results: patent US20100305071A1, “METHODS FOR IMPROVING HEALING OF AN ORAL LESION USING A GLYCEROPHOSPHATE SALT” (PRELIEF INC., priority 2007, published 2010)
“Also recorded” adds a separate entry of the source.

Experiments:
[1] = test system: gum wounds after tooth extraction (oral lesion); assay: CGP powder applied to the gum wound after tooth extraction (single human subject); format: in vivo
Protocol: A tooth was removed from a human, subject and normal packing was applied. There were five (5) stitches put in. Approximately 2 hours after the extraction, the human subject lightly rinsed their mouth and applied powdered CGP granulate of approximately 150 micron size granules directly to the gum and allowed the powder to become wet. Sufficient CGP powder was applied to form a light plaster coating over the wound. This was repeated approximately 6 hours later, before retiring that night, and again the next morning. In all cases, the CGP remained intact and in a cohesive mass on the gum for 15 minutes or more, after which time it slowly dissolved or dispersed and was safely swallowed. At no time during the post-extraction period was there swelling or pain. […] Rapid healing of the gum wounds was observed by a periodontist at the normal stitch-removal visit, 7 days subsequent to tooth removal. The gums had fully closed and were normal pink color in about one week. The periodontist commented that in their 15 years of practice, they had never seen this quality of healing at this speed.

[2] = test system: wounds post implant placement (oral lesion); assay: Mucosal soft tissue healing in patients post implant placement applying dry CGP (PerioCell), small uncontrolled study; format: in vivo, human
Protocol: Methods according to embodiments of the present invention have been applied to multiple patients post implant placement. The age range of implant patients was 30-65 years. All patients had wound closure with 4-0 silk suture with interrupted knots unless otherwise noted. The patients were instructed to apply dry CGP that has less than 5% moisture in 150 micron granulate (PerioCell™, AkPharma Inc., Pleasantville, N.J. 08232) to the wounds three times daily, approximately 4 hours apart, for the first three days succeeding surgery. Mucosal soft tissue healing was observed and studied in these patients. Patient's compliance with the use instructions for CGP was reported by the patient at the post-operational visit (post-op) and was rated as Excellent, Good, Fair or Poor. In most, but not all cases, patients were reasonably compliant.

[3] = test system: rhino mucosal passage inflammation; assay: Observation of low concentrations of CGP on rhino mucosal passage inflammation; format: in vivo; conditions: CGP between 1% and 2% by weight

## calcium glycerophosphate [CGP]
[1]; 7 days subsequent to tooth removal
  healing of the gum wounds observed by periodontist at stitch-removal visit: Rapid healing
[1]; CGP applied about 2 h and 8 h after extraction and next morning
  swelling or pain during the post-extraction period: At no time
[1]; after the extraction
  time until gums were normal pink color (self-observation via mirror): 36 to 48 h
[2]; all implant patients
  correlation between good and excellent compliance with use instructions for CGP and little to no tissue gapping and good wound healing: definite correlation
[2]; one week post-op (2 weeks for patient 018), one patient per block
  erythema at the wound margin at first post-op visit: very little erythema or edema; also recorded: very little gingival erythema; also recorded: localized mild erythema; also recorded: little to no marginal erythema; also recorded: almost no erythema; also recorded: mild mesial inflammation; also recorded: Mild left side erythema and more moderate right side marginal erythema; also recorded: Mild to moderate marginal erythema
[2]; one week post-op (2 weeks for patient 018), one patient per block, CGP three times daily for first three days, compliance varies by patient
  wound closure / tissue approximation at first post-op visit, noted by periodontist: excellent tissue approximation; also recorded: good tissue approximation; also recorded: beautiful wound approximation; also recorded: perfect wound margin approximation; also recorded: moderate tissue gaps in the left side; also recorded: wound margins came together very well with no gaps; also recorded: greater than 50% gapping of the margins; also recorded: great wound approximation with no gaps; also recorded: great wound approximation; also recorded: slight tissue gap at the mesial aspect; also recorded: no gaps seen; also recorded: excellent wound approximation and perfect closure; also recorded: great heal; also recorded: Wound closure was better in the mandible than in the maxilla; also recorded: Wound closure looked great with no gaps; also recorded: moderate gap at wound margin; also recorded: mild gap at the wound margin; also recorded: good wound approximation; also recorded: better healing on the left side than on the right; also recorded: slight gap at the wound margin; also recorded: rolled wound borders with slight gapping across
[2]; three weeks to one month post-op, one patient per block
  healing / closure at later post-op visit: completely healed; also recorded: complete heal; also recorded: healing was complete; also recorded: things looked better; also recorded: perfectly closed wound; also recorded: implant was removed; also recorded: perfect tissue approximation; also recorded: perfect wound approximation; also recorded: excellent healing; also recorded: perfect closure; also recorded: good approximation; also recorded: all looked great; also recorded: complete closure; also recorded: good closure; also recorded: wound margin looked good; also recorded: wound margins were completely approximated; also recorded: excellent heal; also recorded: perfect heal on the left side
[3]
  effect on apparent rhino mucosal passage inflammation: favorably affect
